The record followed here is patent US9453014B2, “Cyclic amide derivatives as inhibitors of 11-β-hydroxysteroid dehydrogenase and uses thereof” (CONNEXIOS LIFE SCIENCES PVT. LTD., priority 2011, dated 2016).

The structures appear in SMILES notation. Where a name gives a salt, the structure may show the parent alone.

A word on the IC50: it is the concentration that gives 50% inhibition.

The target of the assay is T1, human full length HSD11 β 1 (Homo sapiens, UniProt P28845).
T1 construct: transient expression of human full length HSD11 β 1 expression vector; host or cells: CHO cells (transient transfection)
T1 sequence (P28845 whole entry): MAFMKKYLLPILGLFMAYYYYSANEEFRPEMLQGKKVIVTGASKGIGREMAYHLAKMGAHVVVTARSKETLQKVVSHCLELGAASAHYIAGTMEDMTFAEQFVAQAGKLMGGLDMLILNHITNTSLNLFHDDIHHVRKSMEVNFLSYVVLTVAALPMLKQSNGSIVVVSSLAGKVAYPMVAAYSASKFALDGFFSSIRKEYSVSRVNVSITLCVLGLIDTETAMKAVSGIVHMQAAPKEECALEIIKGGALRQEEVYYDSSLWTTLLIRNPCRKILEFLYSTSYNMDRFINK
The assay is described as follows: In Vitro HSD11β1 Inhibition Assay. It counts as cell-based. Conditions: CHO cells transiently expressing human HSD11β1; 200 nM cortisone+500 uM NADPH overnight; cortisone to cortisol by LC/MS-MS; read-out: 11βHSD1 (IC50). On the procedure:
In Vitro HSD11β1 Inhibition Assay:
CHO cells were maintained in Dulbecco's modified Eagle's medium/nutrient mixture F-12 containing 5% fetal bovine serum (v/v) and 2 mM glutamine. Cells were cultured at 37° C. with 5% CO2. For transient expression of human full length HSD11 β 1 expression vector (OriGene Technologies), cells were seeded at a density of 2×10^5 cells/well in a 6-well plate. Transfection was done using Turbofectin8 reagent (OriGene Technologies), according to the protocol provided with the reagent. After 24 hours post-transfection, cells were trypsinized and pooled together before they were re-seeding to 96-well plate at a density of 40000 cells/well. 24 hours after re-seeding, cells were incubated with 200 nM cortisone+500 uM NADPH (or along with small molecule inhibitors) overnight. The enzymatic activity or inhibition of enzyme activity was measured by estimating the conversion of cortisone to cortisol by LC/MS-MS method. The IC50 in nM was calculated from an 8 point log scale of concentration versus inhibition.
As for `CC(C)C(CC(=O)N1CCCC2CCCCC21)c1c[nH]c2ccccc12` (single isomer, unassigned) [Example 117, 3-(1H-indol-3-yl)-4-methyl-1-(octahydroquinolin-1(2H)-yl)pentan-1-one], the IC50 is under 100 nM.

Take `O=C(CCc1nc2ccccc2s1)N1CCO[C@@H]2CCCC[C@H]21` (relative stereo) [Example 79, 3-(1,3-benzothiazol-2-yl)-1-[trans-(4a,8a)-octahydro-4H-1,4-benzoxazin-4-yl]propan-1-one]: the IC50 was over 250 nM.

`O=C(CCc1c[nH]c2ccccc12)N1CCOC2CCCCC21` (centres unmarked) [Compound 67, 3-(1H-indol-3-yl)-1-(octahydro-4H-1,4-benzoxazin-4-yl)propan-1-one]: the IC50 is over 250 nM.

As to `Cc1ccnc2[nH]cc(C(CC(=O)N3CCC(C(=O)O)C4CCCCC43)C(C)C)c12` (centres unmarked) [Example 180, 1-[4-methyl-3-(4-methyl-1H-pyrrolo[2,3-b]pyridin-3-yl)pentanoyl]decahydroquinoline-4-carboxylic acid], the IC50 is over 250 nM.

On to `COC(=O)C1CCN(C(=O)CC(c2c[nH]c3ccccc23)C(C)C)C2CCCCC12` (centres unmarked) [Example 101, methyl 1-[3-(1H-indol-3-yl)-4-methylpentanoyl]decahydroquinoline-4-carboxylate], for which the IC50 was over 250 nM.

`Cc1cccc2c1nnn2C(CC(=O)N1CCCC2CCCCC21)C(C)C` (centres unmarked) [Example 172, 4-methyl-3-(4-methyl-1H-benzotriazol-1-yl)-1-(octahydroquinolin-1(2H)-yl)pentan-1-one]: the IC50 is over 250 nM.

Take `COc1ccc2[nH]cc(CCC(=O)N3CCCC4CCCCC43)c2c1` (centres unmarked) [Compound 7, 3-(5-methoxy-1 fi-indol-3-yl)-1-(octahydroquinolin-1 (2H)-yl)propan-1-one]: the IC50 is over 250 nM.

As for `CC(CC(=O)N1CCCC2C(C(=O)O)CCCC21)c1c[nH]c2cccc(C3CC3)c12` (single isomer, unassigned) [Compound 200, 1-[3-(4-cyclopropyl-1H-Indol-3-yl)butanoyl]decahydroquinoline-5-carboxylic acid], the IC50 is under 100 nM.

`CCOC(=O)C12CCCCC1N(C(=O)CC(C)c1c[nH]c3cccc(Cl)c13)CCC2` (centres unmarked) [Example 127, ethyl 1-[3-(4-chloro-1H-indol-3-yl)butanoyl]octahydroquinoline-4a(2H)-carboxylate]: the IC50 is over 250 nM.

For `CC(C)C(CC(=O)N1CCCC2(C)CCCCC12)c1c[nH]c2cccc(F)c12` (single isomer, unassigned) [Example 116, 3-(4-fluoro-1H-indol-3-yl)-4-methyl-1-(4a-methyloctahydroquinolin-1(2H)-yl)pentan-1-one], the IC50 is over 250 nM.

Turning to `O=C(CCn1ccc2ccccc21)N1CCCC2CCCCC21` (centres unmarked) [Compound 18, 3-(1H-indol-1-yl)-1-(octahydroquinolin-1(2H)-yl)propan-1-one], the IC50 is over 250 nM.

Regarding `CC(C)C(CC(=O)N1CCOC2CCCCC21)c1c[nH]c2cccc(F)c12` (centres unmarked) [Example 135, 3-(4-fluoro-1H-indol-3-yl)-4-methyl-1-(octahydro-4H-1,4-benzoxazin-4-yl)pentan-1-one], the IC50 is over 250 nM.

For `O=C(CCc1c[nH]c2ccccc12)N1CC2CCCCC2C1` (centres unmarked) [Compound 42, 3-(1H-indol-3-yl)-1-(octahydro-2H-isoindol-2-yl)propan-1-one], the IC50 is over 250 nM.

With `COC12CCCCC1N(C(=O)CC(C)c1c[nH]c3ncccc13)CCC2` (centres unmarked) [Example 153, 1-(4a-methoxyoctahydroquinolin-1(2H)-yl)-3-(1H-pyrrolo[2,3-b]pyridin-3-yl)butan-1-one], the IC50 is 150 to 200 nM.

As for `O=C(CCc1c[nH]c2ccccc12)N1CCCC2CCCCC21` (single isomer, unassigned) [Compound 53, 3-(1H-indol-3-yl)-1-(octahydroquinolin-1(2H)-yl)propan-1-one], the IC50 was under 100 nM.

For `O=C(CC(=O)N1CCCC2CCCCC21)c1c[nH]c2ccc(Cl)cc12` (centres unmarked) [Compound 19, 1-(5-chloro-1H-indol-3-yl)-3-(octahydroquinolin-1(2H)-yl)propane-1,3-dione], the IC50 is over 250 nM.

In the case of `CC(CC(=O)N1CCCC2CCCCC21)c1nc2c(Cl)cccc2s1` (centres unmarked) [Example 173, 3-(4-chloro-1,3-benzothiazol-2-yl)-1-(octahydroquinolin-1(2H)-yl)butan-1-one], the IC50 was under 100 nM.

Consider `CC(CC(=O)N1CCCC2C(C(=O)O)CCCC21)c1cn(C)c2cccc(-c3ccc(F)o3)c12` (centres unmarked) [Compound 263, 1-{3-[4-(5-fluorofuran-2-yl)-1-methyl-1H-indol-3-yl]butanoyl}decahydroquinoline-5-carboxylic acid], for which the IC50 is under 100 nM.

As for `O=C(CCc1nc2ccccc2s1)N1CCC2CCCCC21` (centres unmarked) [Example 81, 3-(1,3-benzothiazol-2-yl)-1-(octahydro-1H-indol-1-yl)propan-1-one], the IC50 is under 100 nM.

`CC1CC2CCCCC2N1C(=O)CCc1c[nH]c2ccccc12` (centres unmarked) [Compound 45]: the IC50 is over 250 nM.

Regarding `CC(CC(=O)N1CCCC2CCCCC21)c1c[nH]c2ncccc12` (single isomer, unassigned) [Example 145, 1-(octahydroquinolin-1(2H)-yl)-3-(1H-pyrrolo[2,3-b]pyridin-3-yl)butan-1-one], the 50% inhibitory concentration (IC50) is under 100 nM.

For `Cc1cccc2c1nnn2C(CC(=O)N1CCC(C(=O)O)C2CCCCC21)C(C)C` (centres unmarked) [Example 183, 1-[4-methyl-3-(4-methyl-1H-benzotriazol-1-yl)pentanoyl]decahydroquinoline-4-carboxylic acid], the IC50 is over 250 nM.

For the molecule `O=C(O)C1CCCC2C1CCCN2C(=O)CC(c1ccccc1)c1c[nH]c2cccc(F)c12` (centres unmarked) [Example 188, 1-[3-(4-fluoro-1H-indol-3-yl)-3-phenylpropanoyl]decahydroquinoline-5-carboxylic acid], the IC50 was under 100 nM.

Take `O=C(CCc1c[nH]c2ccccc12)N1CCCC2=C1CCCC2` [Compound 48, 1-(3,4,5,6,7,8-hexahydroquinolin-1(2H)-yl)-3-(1H-indol-3-yl)propan-1-one]: the IC50 is over 250 nM.

On to `O=C(CC(O)(c1c[nH]c2ccccc12)C(F)(F)F)N1CCCC2CCCCC21` (centres unmarked) [Example 108, 4,4,4-trifluoro-3-hydroxy-3-(1H-indol-3-yl)-1-(octahydroquinolin-1(2H)-yl)butan-1-one], for which the IC50 was over 250 nM.

Consider `CC(CC(=O)N1CCCC2C(C(=O)O)CCCC21)c1c[nH]c2cccc(-c3ccc(F)cc3)c12` (centres unmarked) [Compound 254, 1-{3-[4-(4-fluorophenyl)-1H-indol-3-yl]butanoyl}decahydroquinoline-5-carboxylic acid], for which the IC50 is over 250 nM.

Turning to `CC(CC(=O)N1CCC(CC(=O)O)C2CCCCC21)c1c[nH]c2cccc(C3CC3)c12` (centres unmarked) [Compound 189, (1-[3-(4-cyclopropyl-1H-indol-3-yl)butanoyl]decahydroquinolin-4-yl)acetic acid], the 50% inhibitory concentration (IC50) is over 250 nM.

With `CC(C)C(CC(=O)N1CCC(C(=O)O)C2CCCCC21)c1c[nH]c2ccccc12` (centres unmarked) [Example 107, 1-[3-(1H-indol-3-yl)-4-methylpentanoyl]decahydroquinoline-4-carboxylic acid sodium salt], the IC50 is over 250 nM.

As to `Cn1cc(CCC(=O)N2CCCC3CCCCC32)c2cc(O)ccc21` (centres unmarked) [Compound 24, 3-(5-hydroxy-1-methyl-1H-indol-3-yl)-1-(octahydroquinolin-1(2H)-yl)propan-1-one], the IC50 is over 250 nM.
